Numbered stars: 1 amine (or outer) side, 2 acyl side, 3 side chain; on linkers, the order of the positions; unused ones are H or OH. Square brackets hold non-standard residues; d marks the D form. Peptide text beside a SMILES is read from it. X1 = CO[C@H]([C@@H](C)C(=O)[*:2])[C@@H]1C[C@@H]2C[C@@H]2N1[*:1]; X3 = CO[C@H]([C@@H](C)C(=O)[*:2])[C@@H]1CC[C@H](C)N1[*:1]; X5 = CO[C@H]([C@@H](C)C(=O)[*:2])[C@@H]1C[C@H](F)CN1[*:1]; X2 = CO[C@H]([C@@H](C)C(=O)[*:2])[C@@H]1CC2(CC2)CN1[*:1]; Dolaproine = CO[C@@H]([C@@H]1CCCN1)[C@@H](C)C(=O)O; Dil = CC[C@H](C)[C@H](NC)[C@@H](CC(=O)O)OC; Phe(2-Cl) = N[C@@H](Cc1ccccc1Cl)C(=O)O; Phe(4-F) = N[C@@H](Cc1ccc(F)cc1)C(=O)O; Phe(4-Me) = Cc1ccc(C[C@H](N)C(=O)O)cc1; Phe(2-F) = N[C@@H](Cc1ccccc1F)C(=O)O; Phe(2-Me) = Cc1ccccc1C[C@H](N)C(=O)O; 2Thi = N[C@@H](Cc1cccs1)C(=O)O; NMeV = CN[C@H](C(=O)O)C(C)C
Legend:
HepG2 tumor cells = experiment: In vitro tumor cell proliferation inhibition test (CCK-8), HepG2; format: cell-based; details: Homo sapiens, HepG2, 76 hours incubation
Experimental: (§1) The objective of this experiment is to test the in vitro inhibition effect of the formula (D) according to the present invention on the proliferation of HepG2 tumor cells (human hepatocellular carcinoma cells, Chinese Academy of Sciences cell bank, No. #TCHu 72) and A549 tumor cells (human lung adenocarcinoma, Chinese Academy of Sciences cell bank, No. #TCHu150). The cells were treated with different concentrations of the compound in vitro. After 76 hours incubation, the cell proliferation was detected by CCK-8 reagent (Cell Counting Kit-8, Dojindo, No. CK04), and the activity of the compound in vitro was evaluated according to the IC50 value.
(§2) The following is an example of a method for in vitro proliferation inhibition test of HepG2 cells for the purpose of exemplifying the test of the compounds according to the present invention for the proliferation inhibitory activity on tumor cells in vitro. This method is also applicable to, but not limited to, the in vitro proliferation inhibition tests on other tumor cells.
HepG2 cells in logarithmic growth phase were washed with PBS (phosphate buffer, ThermoFisher) once, and added with 2-3 ml trypsin (0.25% trypsin-EDTA (1×), Gibico, Life Technologies) to digest for 2-3 min. Then, 10-15 ml of cell culture medium (DMEM/F12 medium, Invitrogen; 10% (v/v)) was added after the cells were completely digested. The digested HepG2 cells were eluted, and centrifuged at 1000 rpm for 3 min. The supernatant was discarded, and then 10-20 ml of cell culture medium were added to resuspend the cells to prepare a single cell suspension.
The HepG2 single cell suspension was mixed and the cell density was adjusted to 6×10^4 cells/ml with cell culture medium. The density-adjusted cell suspension was mixed uniformly and added to a 96-well cell culture plate at 100 μl/well. The plates were incubated in a 5% CO2 incubator at 37° C. for 18-20 hours.
(§3) The compound was dissolved with DMSO (dimethylsulfoxide, Shanghai Titan Technology Co., Ltd.) to prepare a storage solution having an initial concentration of 10 mM.
(§4) 10 μl of 10 mM compound was added to the wells of the first column of a U-shaped bottom 96-well plate (sample plate 1), and 90 μl of DMSO was added to each compound sample well of the first column, i.e., the stock solution was diluted 10 times as the starting point. Then, 3-fold gradient dilutions were performed, with each compound concentration […]. The diluent was DMSO solution. 60 μl of 100% DMSO was added to 12th column and 20 μl of 1 mM positive drug control was added to 11th column.
(§5) In a new U-shaped bottom 96-well plate (sample plate 2), each sample from the sample plate 1 was diluted 20 times with the complete medium. Then, in another new U-shaped bottom 96-well plate (sample plate 3), each well sample from the sample plate 2 was subjected to a final 10-fold dilution.
(§6) After the cell pre-culture was completed, the 96-well cell culture plate was removed and the supernatant was discarded. Each sample dilution in the 96-well sample plate 3 was successively added to a 96-well cell culture plate at 100 μl/well. Each compound sample was tested in duplicate at each concentration. […] After completion of the loading operation, the 96-well cell culture plate was incubated at 37° C. for about 76 hours in a 5% CO2 incubator.
(§7) The 96-well cell culture plate was taken and CCK-8 was added to each well at […]. The cell culture plate was gently pat and mixed for more than 10 times and incubated at 37° C. for 2 hours in a 5% CO2 incubator.
(§8) The 96-well cell culture plate was taken and placed in a microplate reader (PerkinElmer, VICTOR 3) and the absorbance at 450 nm was measured using the microplate reader.
(§9) Data was analyzed with Microsoft Excel and Graphpad Prism 5.

A549 tumor cells = experiment: In vitro tumor cell proliferation inhibition test (CCK-8), A549; format: cell-based; details: Homo sapiens, A549, 76 hours incubation
Experimental: as §1, §2, §3, §4, §5, §6, §7, §8
In accordance with the above procedure, the inhibition activity of the compound according to the present invention on the proliferation of A549 tumor cells in vitro was tested. The cell culture medium was also DMEM/F12.
as §9

SMILES	IC50 (HepG2 tumor cells)	IC50 (A549 tumor cells)
CC[C@H](C)[C@@H]([C@@H](CC(=O)N1CC2(CC2)C[C@H]1[C@H](OC)[C@@H](C)C(=O)N[C@@H](Cc1ccccc1F)C(=O)O)OC)N(C)C(=O)[C@@H](NC(=O)[C@@H](NC)C(C)C)C(C)C [Compound 11, (S)-2-((2R,3R)-3-((S)-5-((3R,4S,5S)-4-((S)—N,3-dimethyl-2-((S)-3-methyl-2-(methylamino)butanamido)butanamido)-3-methoxy-5-methylheptanoyl)-5-azaspiro[2.4]heptan-6-yl)-3-methoxy-2-methylpropanamido)-3-(2-fluorophenyl)propanoic acid] (H-[NMeV]V[Dil][X2][Phe(2-F)]-OH)	6.6 nM	27.2 nM
CC[C@H](C)[C@@H]([C@@H](CC(=O)N1[C@@H](C)CC[C@H]1[C@H](OC)[C@@H](C)C(=O)N[C@@H](Cc1ccccc1)C(=O)O)OC)N(C)C(=O)[C@@H](NC(=O)[C@@H](NC)C(C)C)C(C)C [Compound 3, (S)-2-((2R,3R)-3-((2S,5S)-1-((3R,4S,5S)-4-((S)—N,3-dimethyl-2-((S)-3-methyl-2-(methylamino)butanamido)butanamido)-3-methoxy-5-methylheptanoyl)-5-methylpyrrolidin-2-yl)-3-methoxy-2-methylpropanamido)-3-phenylpropanoic acid] (H-[NMeV]V[Dil][X3]F-OH)	9.33 nM	16.2 nM
CC[C@H](C)[C@@H]([C@@H](CC(=O)N1CCC[C@H]1[C@H](OC)[C@@H](C)C(=O)N[C@@H](Cc1cccs1)C(=O)O)OC)N(C)C(=O)[C@@H](NC(=O)[C@@H](NC)C(C)C)C(C)C [Compound 35, (S)-2-((2R,3R)-3-((S)-1-((3R,4S,5S)-4-((S)—N,3-dimethyl-2-((S)-3-methyl-2-(methylamino)butanamido)butanamido)-3-methoxy-5-methylheptanoyl)pyrrolidin-2-yl)-3-methoxy-2-methylpropanamido)-3-(thiophen-2-yl)propanoic acid] (H-[NMeV]V[Dil][Dolaproine][2Thi]-OH)	30.6 nM	18 nM
CC[C@H](C)[C@@H]([C@@H](CC(=O)N1C[C@@H](F)C[C@H]1[C@H](OC)[C@@H](C)C(=O)N[C@@H](Cc1ccccc1)C(=O)O)OC)N(C)C(=O)[C@@H](NC(=O)[C@@H](NC)C(C)C)C(C)C [Compound 44, (S)-2-((2R,3R)-3-((2S,4S)-1-((3R,4S,5S)-4-((S)—N,3-dimethyl-2-((S)-3-methyl-2-(methylamino)butanamido)butanamido)-3-methoxy-5-methylheptanoyl)-4-fluoropyrrolidin-2-yl)-3-methoxy-2-methylpropanamido)-3-phenylpropanoic acid] (H-[NMeV]V[Dil][X5]F-OH)	–	179 nM
CC[C@H](C)[C@@H]([C@@H](CC(=O)N1[C@H]2C[C@H]2C[C@H]1[C@H](OC)[C@@H](C)C(=O)N[C@@H](Cc1ccccc1F)C(=O)O)OC)N(C)C(=O)[C@@H](NC(=O)[C@@H](NC)C(C)C)C(C)C [Compound 7, (S)-2-((2R,3R)-3-((1S,3S,5S)-2-((3R,4S,5S)-4-((S)—N,3-dimethyl-2-((S)-3-methyl-2-(methylamino)butanamido)butanamido)-3-methoxy-5-methylheptanoyl)-2-azabicyclo[3.1.0]hexan-3-yl)-3-methoxy-2-methylpropanamido)-3-(2-fluorophenyl)propanoic acid] (H-[NMeV]V[Dil][X1][Phe(2-F)]-OH)	283 nM	776 nM
CC[C@H](C)[C@@H]([C@@H](CC(=O)N1[C@H]2C[C@H]2C[C@H]1[C@H](OC)[C@@H](C)C(=O)N[C@@H](Cc1ccccc1Cl)C(=O)O)OC)N(C)C(=O)[C@@H](NC(=O)[C@@H](NC)C(C)C)C(C)C [Compound 2, (S)-3-(2-chlorophenyl)-2-((2R,3R)-3-((1S,3S,5S)-2-((3R,4S,5S)-4-((S)—N,3-dimethyl-2-((S)-3-methyl-2-(methylamino)butanamido)butanamido)-3-methoxy-5-methylheptanoyl)-2-azabicyclo[3.1.0]hexan-3-yl)-3-methoxy-2-methylpropanamido)propanoic acid] (H-[NMeV]V[Dil][X1][Phe(2-Cl)]-OH)	4.12 nM	2.33 nM
CC[C@H](C)[C@@H]([C@@H](CC(=O)N1CCC[C@H]1[C@H](OC)[C@@H](C)C(=O)N[C@@H](Cc1ccc(F)cc1)C(=O)O)OC)N(C)C(=O)[C@@H](NC(=O)[C@@H](NC)C(C)C)C(C)C [Compound 46, (S)-2-((2R,3R)-3-((S)-1-((3R,4S,5S)-4-((S)—N,3-dimethyl-2-((S)-3-methyl-2-(methylamino)butanamido)butanamido)-3-methoxy-5-methylheptanoyl)pyrrolidin-2-yl)-3-methoxy-2-methylpropanamido)-3-(4-fluorophenyl)propanoic acid] (H-[NMeV]V[Dil][Dolaproine][Phe(4-F)]-OH)	–	106 nM
CC[C@H](C)[C@@H]([C@@H](CC(=O)N1[C@H]2C[C@H]2C[C@H]1[C@H](OC)[C@@H](C)C(=O)N[C@@H](Cc1ccc(C)cc1)C(=O)O)OC)N(C)C(=O)[C@@H](NC(=O)[C@@H](NC)C(C)C)C(C)C [Compound 15, (S)-2-((2R,3R)-3-((1S,3S,5S)-2-((3R,4S,5S)-4-((S)—N,3-dimethyl-2-((S)-3-methyl-2-(methylamino)butanamido)butanamido)-3-methoxy-5-methylheptanoyl)-2-azabicyclo[3.1.0]hexan-3-yl)-3-methoxy-2-methylpropanamido)-3-(p-tolyl)propanoic acid] (H-[NMeV]V[Dil][X1][Phe(4-Me)]-OH)	47.5 nM	75.5 nM
CC[C@H](C)[C@@H]([C@@H](CC(=O)N1CC2(CC2)C[C@H]1[C@H](OC)[C@@H](C)C(=O)N[C@@H](Cc1ccccc1)C(=O)O)OC)N(C)C(=O)[C@@H](NC(=O)[C@@H](NC)C(C)C)C(C)C [Compound 13, (S)-2-((2R,3R)-3-((S)-5-((3R,4S,5S)-4-((S)—N,3-dimethyl-2-((S)-3-methyl-2-(methylamino)butanamido)butanamido)-3-methoxy-5-methylheptanoyl)-5-azaspiro[2.4]heptan-6-yl)-3-methoxy-2-methylpropanamido)-3-phenylpropanoic acid] (H-[NMeV]V[Dil][X2]F-OH)	11.7 nM	30.2 nM
CC[C@H](C)[C@@H]([C@@H](CC(=O)N1CCC[C@H]1[C@H](OC)[C@@H](C)C(=O)N[C@@H](Cc1ccccc1C)C(=O)O)OC)N(C)C(=O)[C@@H](NC(=O)[C@@H](NC)C(C)C)C(C)C [Compound 34, (S)-2-((2R,3R)-3-((S)-1-((3R,4S,5S)-4-((S)—N,3-dimethyl-2-((S)-3-methyl-2-(methylamino)butanamido)butanamido)-3-methoxy-5-methylheptanoyl)pyrrolidin-2-yl)-3-methoxy-2-methylpropanamido)-3-(o-tolyl)propanoic acid] (H-[NMeV]V[Dil][Dolaproine][Phe(2-Me)]-OH)	18.3 nM	32.3 nM

From patent US20180177890A1, “LIGAND-CYTOTOXIC DRUG CONJUGATE, PREPARATION METHOD THEREOF, AND USE THEREOF” (priority 2015, published 2018)
